Drawing on patent US8716284B2, “Adamantyl diamide derivatives and uses of same” (H. Lundbeck A/S, priority 2008, dated 2014), this text covers Emax for 34 compounds.

Each structure is given as a SMILES string.

The target of this assay is T1, rat metabotropic glutamate receptor 5 (mGluR5) (Rattus norvegicus, UniProt P31424).
T1 construct: expressed in transfected cells; host or cells: HEK 293
T1 sequence (P31424 21-1171 isoform P31424-2 limits assumed): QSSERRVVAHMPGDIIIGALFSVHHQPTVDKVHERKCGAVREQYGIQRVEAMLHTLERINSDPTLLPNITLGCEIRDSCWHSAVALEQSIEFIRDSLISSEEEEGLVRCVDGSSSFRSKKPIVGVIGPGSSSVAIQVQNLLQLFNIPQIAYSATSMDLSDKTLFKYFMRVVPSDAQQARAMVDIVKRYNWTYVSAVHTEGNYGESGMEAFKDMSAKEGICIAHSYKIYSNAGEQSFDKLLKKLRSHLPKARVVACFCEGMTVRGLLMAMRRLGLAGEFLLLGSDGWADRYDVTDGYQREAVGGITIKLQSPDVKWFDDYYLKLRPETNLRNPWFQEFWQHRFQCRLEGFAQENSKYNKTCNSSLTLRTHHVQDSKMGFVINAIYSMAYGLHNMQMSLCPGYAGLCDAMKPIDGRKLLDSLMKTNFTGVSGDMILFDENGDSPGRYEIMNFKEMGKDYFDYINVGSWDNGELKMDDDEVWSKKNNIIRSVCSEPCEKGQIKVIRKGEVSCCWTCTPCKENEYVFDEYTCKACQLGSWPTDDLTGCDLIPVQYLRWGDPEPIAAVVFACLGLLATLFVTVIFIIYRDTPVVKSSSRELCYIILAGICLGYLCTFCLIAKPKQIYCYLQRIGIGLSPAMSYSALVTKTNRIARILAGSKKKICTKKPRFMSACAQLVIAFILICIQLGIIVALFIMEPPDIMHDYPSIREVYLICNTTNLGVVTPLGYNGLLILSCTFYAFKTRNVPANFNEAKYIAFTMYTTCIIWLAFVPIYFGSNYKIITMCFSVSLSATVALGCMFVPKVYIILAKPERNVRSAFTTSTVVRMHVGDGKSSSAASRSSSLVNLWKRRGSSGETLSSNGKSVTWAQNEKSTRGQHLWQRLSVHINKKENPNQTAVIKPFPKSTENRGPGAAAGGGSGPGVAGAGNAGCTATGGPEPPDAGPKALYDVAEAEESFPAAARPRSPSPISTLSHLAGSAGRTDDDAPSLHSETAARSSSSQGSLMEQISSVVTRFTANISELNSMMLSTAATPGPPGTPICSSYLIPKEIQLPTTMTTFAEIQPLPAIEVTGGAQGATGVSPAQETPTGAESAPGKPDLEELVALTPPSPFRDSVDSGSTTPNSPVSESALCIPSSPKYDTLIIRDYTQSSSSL
Put plainly: Calcium mobilization assay (FLIPR) for negative or positive allosteric activity, HEK 293 cells. Particulars: HEK293, negative allosteric modulation, inhibition of EC80 glutamate response; read-out: FLIPR maximum inhibition. It counts as cell-based. In short, it runs like this: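 Peak Fluo-4 calcium signal over 3 min at room temperature, minus basal, fitted by Hill equation, in stable rat mGluR5 HEK 293 cells (HBSS/HEPES pH 7.4, BSA, probenecid). Inhibition scored against EC80 glutamate, potentiation against EC20 glutamate, glutamate given with compound.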
(A change in cytosolic calcium serves as a functional read-out for many receptors and channels.)
As to `Cc1cccc2nc(C(=O)NC34CC5CC(CC(NC(=O)c6ccccn6)(C5)C3)C4)cn12` [Example 92, 5-Methyl-imidazo[1,2-a]pyridine-2-carboxylic acid {3-[(pyridine-2-carbonyl)-amino]-adamantan-1-yl}-amide], the Emax fell in the range of 63 to 99%.

`O=C(NC12CC3CC(C1)CC(NC(=O)c1nccc(C(F)(F)F)n1)(C3)C2)c1ccncn1` [Example 196, 4-Trifluoromethyl-pyrimidine-2-carboxylic acid {3-[(pyrimidine-4-carbonyl)-amino]-adamantan-1-yl}-amide]: the Emax lay within 63 to 99%.

`N#Cc1cccc(C(=O)NC23CC4CC(C2)CC(NC(=O)c2ccccn2)(C4)C3)c1` [Example 7, Pyridine-2-carboxylic acid[3-(3-cyano-benzoylamino)-adamantan-1-yl]-acid]: the Emax is 90 to 99%.

Turning to `COc1cccc(C(=O)NC23CC4CC(C2)CC(NC(=O)c2cccc(C)n2)(C4)C3)c1` [Example 43, 6-Methyl-pyridine-2-carboxylic acid [3-(3-methoxy-benzoylamino)-adamantan-1-yl]-amide], the Emax is 63 to 99%.

Consider `O=C(NC12CC3CC(C1)CC(NC(=O)c1cccc(N4CCC(O)C4)n1)(C3)C2)c1cccc(F)c1` (stereo not shown) [Example 219, 6-(3-Hydroxy-pyrrolidin-1-yl)-pyridine-2-carboxylic acid [3-(3-fluoro-benzoylamino)-adamantan-1-yl]-amide], for which the Emax fell in the range of 63 to 99%.

As for `Cc1cccc(C(=O)NC23CC4CC(C2)CC(NC(=O)c2scc5c2OCCO5)(C4)C3)n1` [Example 38, 6-Methyl-pyridine-2-carboxylic acid {3-[(2,3-dihydro-thieno[3,4-b][1,4]dioxine-5-carbonyl)-amino]-adamantan-1-yl}-amide], the Emax was 63 to 99%.

In the case of `COc1cc(C(=O)NC23CC4CC(C2)CC(NC(=O)c2cncc(C)n2)(C4)C3)ccc1F` [Example 159, 6-Methyl-pyrazine-2-carboxylic acid [3-(4-fluoro-3-methoxy-benzoylamino)-adamantan-1-yl]-amide], the Emax is 70 to 99%.

For `O=C(NC12CC3CC(C1)CC(NC(=O)c1cccc(N4CCCC4)n1)(C3)C2)c1ccccn1` [Example 61, 6-Pyrrolidin-1-yl-pyridine-2-carboxylic acid {3-[(pyridine-2-carbonyl)-amino]-adamantan-1-yl}-amide], the Emax lay within 63 to 99%.

For `O=C(NC12CC3CC(C1)CC(NC(=O)c1cccc(N4CCC[C@@H]4CO)n1)(C3)C2)c1cccc(F)c1` [Example 250, 6-((R)-2-Hydroxymethyl-pyrrolidin-1-yl)-pyridine-2-carboxylic acid [3-(3-fluoro-benzoylamino)-adamantan-1-yl]-amide], the Emax lay within 63 to 99%.

In the case of `Cc1cncc(C(=O)NC23CC4CC(CC(NC(=O)c5ccc(F)cc5)(C4)C2)C3)n1` [Example 177, 6-Methyl-pyrazine-2-carboxylic acid [3-(4-fluoro-benzoylamino)-adamantan-1-yl]-amide], the Emax lay in the range of 63 to 99%.

As to `Cc1cncc(C(=O)NC23CC4CC(C2)CC(NC(=O)c2cncc(C)n2)(C4)C3)c1` [Example 165, 6-Methyl-pyrazine-2-carboxylic acid {3-[(5-methyl-pyridine-3-carbonyl)-amino]-adamantan-1-yl}-amide], the Emax was in the range of 63 to 99%.

Turning to `O=C(NC12CC3CC(C1)CC(NC(=O)c1ccc4[nH]ccc4n1)(C3)C2)c1ccccn1` [Example 66, 1H-Pyrrolo[3,2-b]pyridine-5-carboxylic acid {3-[(pyridine-2-carbonyl)-amino]-adamantan-1-yl}-amide], the Emax was 63 to 99%.

Regarding `CN(C)CCN(C)c1cccc(C(=O)NC23CC4CC(CC(NC(=O)c5cccc(F)c5)(C4)C2)C3)n1` [Example 248, 6-[(2-Dimethylamino-ethyl)-methyl-amino]-pyridine-2-carboxylic acid [3-(3-fluoro-benzoylamino)-adamantan-1-yl]-amide], the Emax fell in the range of 63 to 99%.

Take `Cc1cccc(C(=O)NC23CC4CC(CC(NC(=O)c5cccc(C#N)c5)(C4)C2)C3)n1` [Example 32, 6-Methyl-pyridine-2-carboxylic acid [3-(3-cyano-benzoylamino)-adamantan-1-yl]-amide]: the Emax was 63 to 99%.

Turning to `O=C(NC12CC3CC(C1)CC(NC(=O)c1cccs1)(C3)C2)c1ccccn1` [Example 75, Pyridine-2-carboxylic acid {3-[(thiophene-2-carbonyl)-amino]-adamantan-1-yl}-amide], the Emax lay in the range of 63 to 99%.

Consider `O=C(NC12CC3CC(C1)CC(NC(=O)c1cccc(F)c1)(C3)C2)c1cccc(F)c1` [Example 15, N,N′-(1,3-adamantylene)bis(3-fluorobenzamide)], for which the Emax lay within 63 to 99%.

On to `Cc1cccc(C(=O)NC23CC4CC(C2)CC(NC(=O)c2cc(C)nc(C)n2)(C4)C3)n1` [Example 118, 2,6-Dimethyl-pyrimidine-4-carboxylic acid {3-[(6-methyl-pyridine-2-carbonyl)-amino]-adamantan-1-yl}-amide], for which the Emax is 70 to 99%.

Take `Cc1cncc(C(=O)NC23CC4CC(CC(NC(=O)c5ccc6ocnc6c5)(C4)C2)C3)n1` [Example 175, Benzoxazole-5-carboxylic acid {3-[(6-methyl-pyrazine-2-carbonyl)-amino]-adamantan-1-yl}-amide]: the Emax lay within 63 to 99%.

In the case of `Cc1cccc(C(=O)NC23CC4CC(C2)CC(NC(=O)c2cccc(C)c2)(C4)C3)c1` [Example 16, N,N′-(1,3-adamantylene)bis(3-menthylbenzamide)], the Emax lay within 63 to 99%.

`O=C(NC12CC3CC(C1)CC(NC(=O)c1nccc(C(F)(F)F)n1)(C3)C2)c1cccc(F)c1` [Example 184, 4-Trifluoromethyl-pyrimidine-2-carboxylic acid [3-(3-fluoro-benzoylamino)-adamantan-1-yl]-amide]: the Emax lay in the range of 63 to 99%.

Turning to `O=C(NC12CC3CC(C1)CC(NC(=O)c1cccc(N4CCC[C@H]4CO)n1)(C3)C2)c1ccccn1` [Example 228, 6-((S)-2-Hydroxymethyl-pyrrolidin-1-yl)-pyridine-2-carboxylic acid {3-[(pyridine-2-carbonyl)-amino]-adamantan-1-yl}-amide], the Emax fell in the range of 63 to 99%.

`Cc1cncc(C(=O)NC23CC4CC(C2)CC(NC(=O)c2cc(C(F)(F)F)ccc2F)(C4)C3)n1` [Example 169, 6-Methyl-pyrazine-2-carboxylic acid [3-(2-fluoro-5-trifluoromethyl-benzoylamino)-adamantan-1-yl]-amide]: the Emax lay in the range of 63 to 99%.

Consider `Cc1cccc(C(=O)NC23CC4CC(C2)CC(NC(=O)c2coc(C)n2)(C4)C3)n1` [Example 29, 6-Methyl-pyridine-2-carboxylic acid {3-[(2-methyl-oxazole-4-carbonyl)-amino]-adamantan-1-yl}-amide], for which the Emax is 63 to 99%.

With `Cc1cccc(C(=O)NC23CC4CC(CC(NC(=O)c5cccnc5)(C4)C2)C3)n1` [Example 115, 6-Methyl-pyridine-2-carboxylic acid {3-[(pyridine-3-carbonyl)-amino]-adamantan-1-yl}-amide], the Emax was in the range of 70 to 99%.

Consider `Cc1cccc(C(=O)NC23CC4CC(CC(NC(=O)c5ccc6nccn6c5)(C4)C2)C3)n1` [Example 53, Imidazo[1,2-a]pyridine-6-carboxylic acid {3-[(6-methyl-pyridine-2-carbonyl)-amino]-adamantan-1-yl}-amide], for which the Emax was in the range of 63 to 99%.

`CN(C)CCCNc1cccc(C(=O)NC23CC4CC(CC(NC(=O)c5cccc(F)c5)(C4)C2)C3)n1` [Example 247, 6-(3-Dimethylamino-propylamino)-pyridine-2-carboxylic acid [3-(3-fluoro-benzoylamino)-adamantan-1-yl]-amide]: the Emax is 63 to 99%.

On to `Cc1cccc(C(=O)NC23CC4CC(C2)CC(NC(=O)c2c5ccccc5nn2C)(C4)C3)n1` [Example 49, 2-Methyl-2H-indazole-3-carboxylic acid {3-[(6-methyl-pyridine-2-carbonyl)-amino]-adamantan-1-yl}-amide], for which the Emax is 63 to 99%.

As for `Cc1ccnc(C(=O)NC23CC4CC(C2)CC(NC(=O)c2cc(C)ccn2)(C4)C3)c1` [Example 11, N,N′-(1,3-Adamantylene)bis(4-methyl-pyridine-2-carboxamide)], the Emax lay in the range of 63 to 99%.

`Cc1nc(C(=O)NC23CC4CC(CC(NC(=O)c5cnccn5)(C4)C2)C3)cs1` [Example 187, Pyrazine-2-carboxylic acid {3-[(2-methyl-thiazole-4-carbonyl)-amino]-adamantan-1-yl}-amide]: the Emax lay within 63 to 99%.

With `O=C(NC12CC3CC(C1)CC(NC(=O)c1ccc(F)cn1)(C3)C2)c1ccccn1` [Example 111, 5-Fluoro-pyridine-2-carboxylic acid {3-[(pyridine-2-carbonyl)-amino]-adamantan-1-yl}-amide], the Emax was in the range of 70 to 99%.

Consider `Cc1cccc(C(=O)NC23CC4CC(C2)CC(NC(=O)c2cn5c(C)cccc5n2)(C4)C3)n1` [Example 55, 5-Methyl-imidazo[1,2-a]pyridine-2-carboxylic acid {3-[(6-methyl-pyridine-2-carbonyl)-amino]-adamantan-1-yl}-amide], for which the Emax fell in the range of 63 to 99%.

Turning to `Cc1ccn2cc(C(=O)NC34CC5CC(CC(NC(=O)c6cccc(F)c6)(C5)C3)C4)nc2c1` [Example 104, 7-Methyl-imidazo[1,2-a]pyridine-2-carboxylic acid [3-(3-fluoro-benzoylamino)-adamantan-1-yl]-amide], the Emax was 63 to 99%.

For `Cc1cncc(C(=O)NC23CC4CC(CC(NC(=O)c5cc(F)ccn5)(C4)C2)C3)n1` [Example 171, 6-Methyl-pyrazine-2-carboxylic acid {3-[(4-fluoro-pyridine-2-carbonyl)-amino]-adamantan-1-yl}-amide], the Emax is 63 to 99%.

As to `O=C(NC12CC3CC(C1)CC(NC(=O)c1cc(F)ccn1)(C3)C2)c1ccccn1` [Example 108, 4-Fluoro-pyridine-2-carboxylic acid{3-[(pyridine-2-carbonyl)-amino]-adamantan-1-yl}-amide], the Emax fell in the range of 70 to 99%.
